In US20200031825A1, “HETEROAROMATIC-FUSED IMIDAZOLYL AMIDES, COMPOSITIONS AND USES THEREOF AS STING AGONISTS” (Trillium Therapeutics Inc., priority 2018, published 2020):

Key:
hSTING-wt = hSTING-wt (Homo sapiens, UniProt Q86WV6); experiment: Cellular Functional Assay I: ISRE-SEAP reporter in HEK-293T-Dual Null cells transfected with hSTING-wt; assay type: cell-based
hSTING-H232 = hSTING-H232 (Homo sapiens, UniProt Q86WV6); experiment: Cellular Functional Assay I: ISRE-SEAP reporter in HEK-293T-Dual Null cells transfected with hSTING-H232; assay type: cell-based
Sequence of hSTING-H232 (Q86WV6 whole entry): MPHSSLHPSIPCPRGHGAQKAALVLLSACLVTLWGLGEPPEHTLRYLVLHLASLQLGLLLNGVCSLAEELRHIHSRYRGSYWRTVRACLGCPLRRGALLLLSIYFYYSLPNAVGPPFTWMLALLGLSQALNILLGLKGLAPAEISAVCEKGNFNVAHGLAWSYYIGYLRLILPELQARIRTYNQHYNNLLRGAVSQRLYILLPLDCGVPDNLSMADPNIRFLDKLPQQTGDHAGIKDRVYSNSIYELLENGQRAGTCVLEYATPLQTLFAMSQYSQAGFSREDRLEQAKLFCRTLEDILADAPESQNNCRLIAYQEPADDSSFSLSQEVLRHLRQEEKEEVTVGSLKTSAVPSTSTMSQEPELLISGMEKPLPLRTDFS

hSTING-HAQ = hSTING-HAQ (Homo sapiens, UniProt Q86WV6, G230A/H232R/R293Q/R71H); experiment: Cellular Functional Assay I: ISRE-SEAP reporter in HEK-293T-Dual Null cells transfected with hSTING-HAQ; assay type: cell-based
Sequence of hSTING-HAQ (Q86WV6 whole entry R71H/G230A/H232R/R293Q): as the sequence (Q86WV6 whole entry) above, with R71H, G230A, H232R, R293Q counted along it

hSTING-AQ = target: T1, hSTING-AQ (Homo sapiens, UniProt Q86WV6, G230A/R293Q); experiment: Cellular Functional Assay I: ISRE-SEAP reporter, hSTING-AQ allele; assay type: cell-based
T1 construct: expressed in transfected cells
T1 sequence (Q86WV6 whole entry G230A/H232R/R293Q): as the sequence (Q86WV6 whole entry) above, with G230A, H232R, R293Q counted along it

hSTING-Q = target: T2, hSTING-Q (Homo sapiens, UniProt Q86WV6, R293Q); experiment: Cellular Functional Assay I: ISRE-SEAP reporter, hSTING-Q allele; assay type: cell-based
T2 construct: expressed in transfected cells
T2 sequence (Q86WV6 whole entry R293Q): as the sequence (Q86WV6 whole entry) above, with R293Q counted along it

mSTING-wt = target: T3, mSTING-wt (Mus musculus, UniProt Q3TBT3); experiment: Cellular Functional Assay I: ISRE-SEAP reporter in HEK-293T-Dual Null cells transfected with mouse STING; assay type: cell-based; settings: SEAP reporter
T3 sequence (Q3TBT3 1-378): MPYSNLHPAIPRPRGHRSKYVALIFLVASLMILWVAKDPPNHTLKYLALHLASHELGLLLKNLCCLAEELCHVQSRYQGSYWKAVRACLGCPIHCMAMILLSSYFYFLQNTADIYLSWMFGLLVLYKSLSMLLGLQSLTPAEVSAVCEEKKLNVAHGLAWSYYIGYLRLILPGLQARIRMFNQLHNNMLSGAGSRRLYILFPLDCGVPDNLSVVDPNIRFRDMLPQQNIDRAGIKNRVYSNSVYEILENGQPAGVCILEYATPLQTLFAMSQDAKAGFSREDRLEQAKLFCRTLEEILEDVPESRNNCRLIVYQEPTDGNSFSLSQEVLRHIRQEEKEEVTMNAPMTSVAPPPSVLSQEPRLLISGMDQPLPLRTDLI

[1] = tested on: human dendritic cells (h-DCs); experiment: Cellular Functional Assay II: secreted IFN-β from human dendritic cells; assay type: cell-based; settings: h-DC
Experimental: (§1) Activation of STING in primary cells was determined by measuring levels of secreted IFN-β from human monocyte-derived macrophages (h-MDMs)/dendritic cells (h-DCs) and/or mouse dendritic cells (m-DCs) after treatment with A.
(§2) Human CD14+ cells were first isolated from human peripheral blood mononuclear cells (PBMCs) with Stemcell Easysep Monocyte Isolation™ kit. Human CD14+ cells were kept in conditioned media for 7-12 days to generate h-MDMs and h-DCs before use. After harvesting from C57BL/6 mouse femurs, bone marrow cells were culture in conditioned media for 7 days to generate m-DCs before use.
(§3) The Culture conditions for the various types of cells whereas noted in Table 2:
(§4) 0.5×10^6 cells in 50 ul buffer (50 mM HEPES, pH7.0; 100 mM KCl; 3 mM MgCl2, 0.1 mM DTT; 85 mM Sucrose; 0.2% BSA, 1 mM ATP) in 96-well round bottom plate. Compound (formulated in DMSO) or DMSO (control) were added into each well and the plate incubate at 37° C. for 30 minutes. Cells were washed twice with 100 uL of fresh media and incubated at 37° C. for an additional 6 hours. After 6 hour of incubation, the supernatant was collected and a Cytometry Bead Assay™ (CBA, BioLegend) was used to measure […] levels.

[2] = tested on: mouse dendritic cells (m-DCs); experiment: Cellular Functional Assay II: secreted IFN-β from mouse dendritic cells; assay type: cell-based; settings: m-DC, 10 uM
Experimental: as §1, §2, §3, §4

[3] = tested on: murine A20 model of B cell lymphoma; experiment: In vivo syngeneic A20 mouse tumor model; settings: Balb/c mice
Experimental: The in vivo efficacy of exemplary compound I(c) was evaluated in a murine A20 model of B cell lymphoma. A20 cells were maintained in RPMI1640/10% FBS. Approximately 4×10^6 A20 cells were injected subcutaneously in 0.1 mL PBS into the right flanks of immunocompetent female Balb/c mice. Tumors were permitted to grow for six days after initial inoculation before the animals were segregated into treatment group. Study groups were treated with 25 μg of B formulated in an appropriate vehicle. Exemplary compound B was dosed intratumorally at the proximal tumor (right flank) on days 6, 8, and 11 of the study. Only animals in good health were used for dosing. Since the effects of the test article on the animals were not known, animals were closely observed for 1 h following dosing and at each tumor measurement time point over the course of the study. Any adverse reactions to the administration of the test material were noted and tabulated. […] Systemic toxicity of the treatments was evaluated by body weight change. Tumor volume was measured every 2 days using standard caliper measurement techniques.

[4] = A20 tumor, 25 μg intratumorally on days 6, 8 and 11

Sequence of hSTING-wt (Q86WV6 whole entry H232R): as the sequence (Q86WV6 whole entry) above, with H232R counted along it

CCn1nc(C)cc1C(=O)Nc1nc2cc(C(N)=O)cnc2n1C/C=C/Cn1c(NC(=O)c2cc(C)nn2CC)nc2cc(C(N)=O)cc(C)c21.Cl.Cl.Cl.Cl [Compound B, 3-[(E)-4-[5-carbamoyl-2-[(2-ethyl-5-methyl-pyrazole-3-carbonyl)amino]-7-methyl-benzimidazol-1-yl]but-2-enyl]-2-[(2-ethyl-5-methyl-pyrazole-3-carbonyl)amino]imidazo[4,5-b]pyridine-6-carboxamide Tetrahydrochloride]
EC50 level, human STING WT (hSTING-wt): pM or nM level
EC50 (hSTING-wt; HEK-293T-Dual Null, hSTING-wt): < 1 nM
EC50 level, human STING REF (also called H232) (hSTING-H232): pM or nM level
EC50 (hSTING-H232; HEK-293T-Dual Null, hSTING-H232): < 1 nM
EC50 level, human STING HAQ (hSTING-HAQ): pM or nM level
EC50 (hSTING-HAQ; HEK-293T-Dual Null, hSTING-HAQ): 1 to 500 nM
EC50 (hSTING-AQ): 1 to 500 nM
EC50 (hSTING-Q): 1 to 500 nM
EC50 level, mouse STING (mSTING-wt): pM or nM level
EC50 (mSTING-wt; HEK-293T-Dual Null, mSTING-wt, read-out: EC50 mSTING-wt): 1 to 500 nM
IFN-β level ([1]; 0.1 uM): >800 pg/mL
IFN-β level ([1]; 1 uM): >1,000 pg/ml
IFN-β level ([1]; 10 uM): >1,000 pg/ml
IFN-β level [2]: >60,000 pg/ml
dose related toxicity as measured by body weight loss ([3]; 25 μg dose group): no dose related toxicity
animals with complete tumor regression [3, 4]: 80%
tumoricidal effect at the injected tumor [3, 4]: significant tumoricidal properties
